pKi: −log10 of the molar value.

The target in test [1] is T1, rat EP4 receptor (Rattus norvegicus, UniProt P43114). Description: Evaluation test of rat EP4 receptor affinity ([3H]PGE2 binding, membrane fraction of HEK293 cells expressing rat EP4). The arrangement: expressed in transfected cells; host or cells: HEK293 cells, transient transfection with Lipofectamine 2000; membrane fraction. To be noted: [3H]PGE2 0.3 nM. As to the method:
Evaluation Test of Rat EP4 Receptor Affinity
Cell Culturing and Transfection
Using a 10 cm collagen-coated dish (Asahi Glass), HEK293 cells were cultured in D-MEM culture medium, the culture medium was removed at a confluence (90 to 100% density state) and washed with a phosphate buffer saline (PBS), and then the cells were detached with N,N,N′,N′-tetrakis(carboxymethyl)ethylenediamine (EDTA). The number of the cells were counted and seeded on a 15 cm collagen-coated dish to a confluence of 70%. On the next day, to an Opti-MEM culture medium at 1.2 mL/dish was added Lipofectamine 2000 (Invitrogen) at 60 μL/dish, followed by leaving to stand at room temperature for 5 minutes. A plasmid in which rat EP4 (Sequence Number 1) had been inserted into a TA cloning site of pcDNA3.1-V5-His-topo was added thereto at 15 μg/dish. After leaving to stand at room temperature for 30 minutes, the resultant was added to the dish and cultured for 20 to 24 hours. The cell culture was carried out in a CO2 incubator (37° C., 5% CO2).
Preparation of Membrane Fraction
The culture medium was removed by suction, 10 mL of cooled PBS was added thereto per 15 cm dish, and the cells were scraped using a cell scraper (Sumitomo Bakelite). They were washed with cooled PBS (1,200 rpm, 4° C., 5 min), and then suspended in 6 mL of cooled 20 mM Tris-HCl (pH 7.4; Nakalai Tesque Inc., including 5 mM EDTA (Nakalai Tesque Inc.) per dish and the resultant was homogenized using a Polytron and the homogenate was centrifuged (26,000 rpm, 20 min, 4° C.). The obtained precipitate was resuspended in cooled 20 mM Tris-HCl and homogenized again using a Polytron, and the homogenate was centrifuged (26,000 rpm, 20 min, 4° C.). The obtained precipitate was resuspended in 50 mM HEPES (pH 7.5; Dojindo Laboratories) at 1 mL per dish, homogenized using a Polytron, and freeze-stored at −80° C. as a membrane fraction. At this time, a part thereof was used for the measurement of the protein concentration. Measurement of the protein concentration was carried out in duplicate using a Bio-Rad Protein assay kit (Bio-Rad Laboratories) in accordance with the appended standard Protocol.
[^3H]PGE2 50 μL (final concentration 0.3 nM; Perkin Elmer), 100 μL (20 μg/well) of a membrane fraction prepared from the rat EP4 expression cell and 50 μL of a test compound were mixed in a 96-well microplate (Sumitomo Bakelite), incubated at room temperature for 1 hour, filtered by suction on a UniFilter-96 GF/B (Perkin Elmer) using a FilterMate Harvester (Perkin Elmer), and then washed three times with 300 μL/well of a cooled assay buffer. Dilution of [^3H]PGE2 and the membrane fraction was carried out using an assay buffer (50 mM HEPES, 10 mM MgCl2), and dilution of the test compound and the unlabeled PGE2 was carried out using DMSO and an assay buffer. Further, in the case of the addition of a human serum albumin (HSA), dilution was carried out using an assay buffer containing 4% HSA (final concentration 1%; Sigma). The UniFilter-96 GF/B was treated preliminarily by washing twice with 200 μL/well of a cooled assay buffer. The UniFilter-96 GF/B after filtration was dried in a dryer overnight, 50 μL/well of MicroScint20 (Perkin Elmer) was added thereto, and then the radioactivity was measured using a TopCount (Perkin Elmer). For measurement of the non-specific binding, an unlabeled PGE2 (final concentration 1 μM; Cayman) was added. All of the measurements were carried out in duplicate, and the specific binding amount was determined by subtracting the non-specific binding amount from the total binding amount. The Ki value was calculated according to the general methods.
In the connection, Ex represents the below-described Example Compound number.

Test [2] addresses T1, rat EP4 receptor. Description: In vivo rat EP4 receptor antagonistic activity (ONO-4819/LPS, plasma TNF-α). To be noted: SD rat, oral. As to the method: Evaluation Test of In Vivo Rat EP4 Receptor Antagonistic Activity
A solution of PEG 400:20% Tween 80:aqueous 1 M NaHCO3 solution=1:4:5 of a test compound was orally administered to a SD rat (male, 6-week old) under non-fasting conditions, and after 1 hour, ONO-4819 was administered subcutaneously to the back of the rat. After 30 minutes, Lipopolysaccharide (LPS, 0.01 mg/kg) was administered to the tail vein without anesthesia, and after 60 minutes, 0.5 mL of heparin blood was collected from the fundus under ether anesthesia. The blood sample was centrifuged (3000 rpm, 10 minutes) to separate the plasma, and then the TNF-α concentration in the rat plasma was measured by an ELISA kit (see Hepatology Research Journal, vol. 21, 252-260, 2001). A value obtained by subtracting the TNF-α concentration of the group treated with ONO-4819 from the TNF-α concentration of the group not treated with ONO-4819 was taken as 100%, and the inhibitory rates to the value were calculated for the test compounds.
In this connection, Ex represents the below-described Example compound number.

T1 sequence (P43114 whole entry): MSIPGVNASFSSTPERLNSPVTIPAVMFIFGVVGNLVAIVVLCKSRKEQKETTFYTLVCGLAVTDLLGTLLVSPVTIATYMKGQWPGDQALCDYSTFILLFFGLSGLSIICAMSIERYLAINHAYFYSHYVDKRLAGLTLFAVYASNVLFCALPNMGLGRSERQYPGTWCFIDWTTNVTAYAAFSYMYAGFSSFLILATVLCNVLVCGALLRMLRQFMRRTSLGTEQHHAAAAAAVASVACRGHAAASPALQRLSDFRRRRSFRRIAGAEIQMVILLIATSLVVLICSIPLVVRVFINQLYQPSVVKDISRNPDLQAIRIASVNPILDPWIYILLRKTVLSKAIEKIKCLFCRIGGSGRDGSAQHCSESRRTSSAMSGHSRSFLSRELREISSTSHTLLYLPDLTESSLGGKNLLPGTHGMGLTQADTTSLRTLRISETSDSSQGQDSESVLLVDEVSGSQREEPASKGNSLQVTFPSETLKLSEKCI

One may read the pKi as the Ki on a negative log10 scale, so that one unit is a factor of ten. Low values mean a high Ki, high ones a low Ki. `O=C(NC[C@H]1CC[C@H](C(=O)O)CC1)c1cc(Cl)cc2ccn(Cc3ccc4ccccc4n3)c12` [Example 53] gave a pKi in test [1] of 8.85. For the same compound, the “Inhibitory rate (%)” value in test [2] (dose 0.01 mg/kg) is reported as 45%.

`O=C(O)c1ccc(CNC(=O)c2cc(Cl)cc3ccn(Cc4ccc5ccccc5n4)c23)cc1` [Example 57]: the negative logarithm of the Ki (pKi) in test [1] was 9.07. In addition, the “Inhibitory rate (%)” value in test [2] (dose 0.03 mg/kg) stood at 113%.

As for `O=C(NC[C@H]1CC[C@H](C(=O)O)CC1)c1cc(C(F)(F)F)cc2ccn(Cc3ccc4ccccc4n3)c12` [Example 124], the pKi in test [1] was 8.85. Further, the “Inhibitory rate (%)” value in test [2] (dose 0.03 mg/kg) worked out at 105%.

Source of the values: patent US8598355B2, “Amide compound” (Astellas Pharma Inc., priority 2008, dated 2013).
